From ChEMBL document CHEMBL1811900, “Sesquiterpene glycosides from Cosmospora joca” (J Nat Prod, 2011)
pIC50: −log10 of the molar value. Activity calls are given as the source filed them. The calls are words filed in the database; no cut-off is given here.

What was measured:
RAW264.7 [1] = experiment: Antiinflammatory activity in mouse RAW264.7 cells assessed as inhibition of LPS-stimulated NO production at 100 uM after 24 hrs by spectrophotometry; assay type: functional
RAW264.7 [2] = experiment: Cytotoxicity against mouse RAW264.7 cells by Alamar blue assay; assay type: cell-based
RAW264.7 [3] = experiment: Antiinflammatory activity in mouse RAW264.7 cells assessed as inhibition of LPS-stimulated NO production at 0.1 to 100 uM after 24 hrs by spectrophotometry; assay type: functional, cell-based

Row | SMILES | inhibition (RAW264.7 [1]) | Imax (RAW264.7 [1]) [%] | also measured
1 | CC(=O)OC(CC(=O)C(C)CCC=C(C)C)/C(C)=C/CO[C@@H]([C@H](O)[C@H](O)CO)[C@H](O)CO (stereo partly drawn) | Active |  | 
2 | CC(=O)O[C@@H](C[C@H](O[C@@H]1O[C@H](CO)[C@@H](O)[C@H](O)[C@@H]1O)[C@](C)(O)CCC=C(C)C)/C(C)=C/CO[C@@H]([C@H](O)[C@H](O)CO)[C@H](O)COCC=C(C)C | inactive |  | 
3 | CCCCC/C=C\CCC(=O)O[C@@H]1[C@H](O[C@@H](C[C@H](OC(C)=O)/C(C)=C/CO[C@@H]([C@H](O)[C@H](O)CO)[C@H](O)CO)[C@](C)(O)CCC=C(C)C)O[C@H](CO)[C@@H](O)[C@@H]1O | Active |  | 
4 | CC(C)=CCC/C(C)=C/CC/C(C)=C/CO[C@@H]([C@H](O)[C@H](O)CO)[C@H](O)CO [COSMOSPORASIDE A] |  | 54.52 | Activity (RAW264.7 [2]): Toxic
5 | CCCCCCCCCC(=O)O[C@@H]1[C@H](O[C@@H](C[C@H](OC(C)=O)/C(C)=C/CO[C@@H]([C@H](O)[C@H](O)CO)[C@H](O)CO)[C@](C)(O)CCC=C(C)C)O[C@H](CO)[C@@H](O)[C@@H]1O [COSMOSPORASIDE D] |  | 71.7 | inhibition (RAW264.7 [3]): Dose-dependent effect; pIC50 (RAW264.7 [3]; RAW264.7, 24 h): 4.18
